Measurements taken from patent US8426364B2, “Method of preventing progression of hypertension-induced heart failure with PKC peptides” (The Board of Trustees of the Leland Stanford Junior …, priority 0011, dated 2013).

What was measured:
Dahl salt-sensitive rats [1] = assay: Histological analysis of left ventricle (Masson's trichrome, H&E); format: in vivo, rat
Method: For morphometric analysis, left ventricle (LV) specimens from 17-week-old rats (n=4 for each group) were fixed with 10% buffered formalin and embedded in paraffin. Several sections were prepared from each specimen and stained with either hematoxylin and eosin (H&E) for assessment of inflammation and proliferation of vascular cells, or with Masson's trichrome stain to assess the area of cardiac fibrosis using a point-counting method (22, 23).

Dahl salt-sensitive rats [2] = assay: Hypertension-induced heart failure rat model (survival, echocardiography, blood pressure, body weight); format: in vivo; settings: for survival: treated for six weeks, compared to TAT control peptide; for Systolic Wall Stress: calculated (SBP × ESD)/[4 × PWT × (1 + PWT/ESD)]; for Systolic Wall Stress / EDD (LV end-diastolic diameter) / ESD (LV end-systolic diameter) / FS (LV fractional shortening) / PWT (LV posterior wall thickness): mean ± SEM
Method: To determine whether εPKC plays any role in the transition to heart failure and death, HS rats were treated with the selective εPKC inhibiting peptide, TAT47-57-εV1-2 (εV1-2; 2.8 μg/kg/day using a subcutaneous Alzet pump (26)) or with saline as a control (HS-control) from the age of 11 weeks (when compensatory hypertrophy is seen) to 17 weeks (when heart failure is apparent; FIG. 1A)). Another group of hypertensive rats was treated for the same period with a common clinical treatment, the angiotensin II receptor type 1 blocker (ARB, olmesartan, Olm; 3 mg/kg/day).
Animal protocols were approved by the Stanford University Institutional Animal Care and Use Committee. Dahl salt-sensitive rats provide a reliable animal model of hypertension-induced heart failure. When placed on 8% NaCl-containing diet from the age of 6 weeks (HS rats), the rats develop compensative left ventricular hypertrophy by the age of 11 weeks, and die from heart failure when they reach 16 to 21 weeks (21, 25). Male Dahl salt-sensitive rats were fed with an 8% NaCl-containing diet (Dahl-high-salt) or with a 0.3% NaCl low salt diet (LS-control; n=25) from the age of 6 weeks onward as previously reported (3, 21). Dahl-high-salt rats were treated between the ages of 11 and 17 weeks with the selective εPKC inhibiting peptide, TAT47-57-εV1-2 (εV1-2; n=10, 2.8 μg/kg/day), with TAT47-57-εV1-1 (εV1-1; n=14, 2.8 μg/kg/day), or with saline as a control (HS-Control; n=12), using osmotic pumps implanted subcutaneously. A fourth group was treated with angiotensin II receptor type 1 blocker, olmesartan (ARB; n=12, 3 mg/kg/day in 0.5% carboxymethylcellulose) delivered by daily gavage for the same period. A fifth group was treated from 15 to 17 weeks of age with the selective εPKC activating peptide, TAT47-57-ΨεRACK (ΨεRACK; n=17, 2.8 μg/kg/day) using an osmotic pump implanted subcutaneously (FIG. 1).
The osmotic pumps were replaced every two weeks, but were discontinued after the age of 17 weeks because half of the HS-control rats died by that age. Additional groups were treated with εV1-2 (using the Alzet pump) together with ARB (n=12) or with ARB alone (n=13) from 11 to 19 weeks of age (FIG. 6). Survival rate, fractional shortening and blood pressure were evaluated in these groups. Systolic blood pressure was measured by the tail-cuff method (BP-2000 Blood Pressure Analysis System, Visitech Systems, Inc), and fractional shortening was measured by transthoracic echocardiography (Vivid 7, GE). Additional control Dahl-high-salt rats were treated with TAT47-57 carrier peptide between 11 to 17 weeks or between 15 to 17 weeks, with vehicle for ARB (0.5% carboxymethylcellulose) or were left untreated and evaluated for survival rate, cardiac function and blood pressure.

Dahl salt-sensitive rats [3] = assay: as above; format: in vivo; settings: age of 11, 13, 15 and 17 weeks; β peptide study
92 genes = assay: Real-time PCR gene expression in LV tissue; format: in vivo, rat; settings: LV from 17-week-old rats; 92 genes examined
Method: In another study, the effects of pharmacological inhibition or activation of εPKC and olmesartan on gene expression profile was analyzed. To address the molecular differences in the protective effects induced by εPKC inhibition and olmesartan, real-time PCR was used to monitor changes in gene expression resulting from each treatment. The effects of chronic treatment (as above) with the εPKC inhibitor (TAT47-57-εV1-2), the εPKC activator (TAT47-57-ΨεRACK) or olmesartan (ARB) in LV from 17-week-old rats on the expression of 92 genes was examined. […]
Two μg of total RNA extracted from the LV tissues of each […] rat (n=6 for each group) were converted to first-strand cDNA by reverse transcription using High Capacity cDNA Archive kit (Applied Biosystems). […] The fluorescence signals were normalized to the ubiquitously expressed housekeeping gene, β-actin. Fold-changes of mRNA expression of each group compared to the LS-control were determined by comparing cycle threshold values (24). Statistical analysis was assessed by 1-way factorial ANOVA with Fisher's test. […]

[4] = 17 weeks of age, high-salt rats, εV1-2 and Olm treated 11 to 17 weeks, ΨεR 15 to 17 weeks
[5] = 24 weeks of age, treated 11 to 19 weeks of age

Question: With CC[C@H](C)[C@H](NC(=O)[C@@H]1CCCN1C(=O)[C@H](C)NC(=O)[C@H](CC(=O)O)NC(=O)[C@H](Cc1c[nH]cn1)NC(=O)[C@@H](N)CSSC[C@H](N)C(=O)N[C@@H](Cc1ccc(O)cc1)C(=O)NCC(=O)N[C@@H](CCCNC(=N)N)C(=O)N[C@@H](CCCCN)C(=O)N[C@@H](CCCCN)C(=O)N[C@@H](CCCNC(=N)N)C(=O)N[C@@H](CCCNC(=N)N)C(=O)N[C@@H](CCC(N)=O)C(=O)N[C@@H](CCCNC(=N)N)C(=O)N[C@@H](CCCNC(=N)N)C(=O)N[C@@H](CCCNC(=N)N)C(=O)O)C(=O)NCC(=O)N[C@@H](Cc1ccc(O)cc1)C(=O)N[C@@H](CC(=O)O)C(=O)O [ΨεR] as the molecule, how does the arterial stenosis (Dahl salt-sensitive rats [1]; hypertensive rats, chronic treatment) read?
Answer: The arterial stenosis was “induced arterial stenosis”.

Question: And the arterial stenosis (Dahl salt-sensitive rats [1]; normotensive Dahl salt-sensitive rats on a low-salt diet)?
Answer: The arterial stenosis was “did not cause arterial stenosis”.

Question: For “βIV5-3: βIV5-3 PKC peptide inhibitor KLFIMN (SEQ ID NO: 2), from the V5 domain of βIPKC (Synthetic PKC peptide inhibitor)”, which survival (Dahl salt-sensitive rats [2]) is on record?
Answer: Its survival is “prolonged survival”.

Question: With “βIIV5-3: βIIV5-3 peptide inhibitor QEVIRN (SEQ ID NO: 3), from the V5 domain of βIIPKC (Synthetic peptide inhibitor)” as the molecule, how does the systolic blood pressure (Dahl salt-sensitive rats [3]) read?
Answer: Its systolic blood pressure is “less than in the TAT or βIV5-3 peptide-treated animals”.

Question: What about the “left ventricular weight to body weight ratio (LVW/BW)” value (Dahl salt-sensitive rats [2]; 17-weeks old rats) of the same molecule?
Answer: The value was “reduced”.

Question: And the fractional shortening (Dahl salt-sensitive rats [2]; at 17 weeks, vs TAT control, in words)?
Answer: The fractional shortening was “significantly reduced fractional shortening”.

Question: What about the wall stress (Dahl salt-sensitive rats [2]; hypertensive rats, in words) of the same molecule?
Answer: Its wall stress is “reduces wall stress”.

Question: And the survival (Dahl salt-sensitive rats [2])?
Answer: The survival was “prolonged survival significantly longer than treatment with the βIV5-3 peptide inhibitor”.

Question: How did the “number of genes with expression modified by this treatment but not the other” value (92 genes) turn out when CCCc1nc(C(C)(C)O)c(C(=O)O)n1Cc1ccc(-c2ccccc2-c2nnn[nH]2)cc1 [Olm, olmesartan] was run?
Answer: The value was 15 genes.

Question: What about the “reduction of fibrosis in LV” value (Dahl salt-sensitive rats [1]; as compared with HS-control, 17-week-old rats, Masson's trichrome) of the same molecule?
Answer: Its value is roughly 50%.

Question: And the “Systolic Wall Stress” value (Dahl salt-sensitive rats [2]; 17 weeks of age)?
Answer: Its value is 50.7 ± 4.4 g/cm^2.

Question: What about the “EDD (LV end-diastolic diameter)” value (Dahl salt-sensitive rats [2]; [4]) of the same molecule?
Answer: Its value is 7.3 ± 0.2 mm.

Question: What about the “ESD (LV end-systolic diameter)” value (Dahl salt-sensitive rats [2]; [4]) of the same molecule?
Answer: The value was 3.1 ± 0.2 mm.

Question: And the “FS (LV fractional shortening)” value (Dahl salt-sensitive rats [2]; [4])?
Answer: Its value is 58.4 ± 1.6 %.

Question: What about the “PWT (LV posterior wall thickness)” value (Dahl salt-sensitive rats [2]; [4]) of the same molecule?
Answer: Its value is 1.5 ± 0.04 mm.

Question: What about the “EDD (LV end-diastolic diameter)” value (Dahl salt-sensitive rats [2]; [5]) of the same molecule?
Answer: The value was 7.9 ± 0.2 mm.

Question: And the “ESD (LV end-systolic diameter)” value (Dahl salt-sensitive rats [2]; [5])?
Answer: The value was 4.9 ± 0.5 mm.

Question: And the “FS (LV fractional shortening)” value (Dahl salt-sensitive rats [2]; [5])?
Answer: The value was 38.3 ± 4.6%.

Question: What about the “PWT (LV posterior wall thickness)” value (Dahl salt-sensitive rats [2]; [5]) of the same molecule?
Answer: Its value is 1.5 ± 0.03 mm.

Question: What about the “Systolic Wall Stress” value (Dahl salt-sensitive rats [2]; 24 weeks of age, treated 11 to 19 weeks) of the same molecule?
Answer: Its value is 105.8 ± 13.6 g/cm^2.
